# Assay results from patent US4496521A, “Insulin-potentiating peptides” (The Whittier Institute for Diabetes and Endocrinology, priority 1983, dated 1985).
# Key:
# [1] = Hypoglycemic activity of insulin when the peptide is given together with insulin; assay type: in vivo
# [2] = Plasma glucose in mice given a glucose load (glucose oxidase method); assay type: in vivo; settings: for Plasma Glucose 0 min: sample at 0 min; for Plasma Glucose 60 min: sample at 60 min
# Procedure: Injections were made intraperitoneally 30 min before administration of a glucose load of 2 mg/g of body weight containing an appropriate amount of (U-^14 C)-D-glucose (Amersham Radiochemicals, Arlington Heights, IN) so that about 8×10^5 dpm of radiolabeled glucose was given per mouse. Sixty minutes after administration of the mixture, the mice were sacrificed and fragments of liver, diaphragm, and adipose tissue were quickly excised and weighed in a torsion balance. The pieces were placed in vials and digested for 2 hr at 55° C. in 1 molar KOH. After cooling to room temperature, the scintillation liquid was added to the vials. Radioactivity was measured the next day, and an average efficiency of 60% was measured using the internal standard method. Samples of blood were collected at the desired time by intraorbital puncture. Glucose content in the chilled plasma was determined in triplicates by the glucose oxidase method. Blood concentration of radioactive glucose was determined using 20 μl of plasma. Glucose incorporation (GI), expressed in arbitrary units, was calculated by the following equation for the various tissues: [formula]
# Further testing was carried out on other mice to show the effect of insulin on the utilization of glucose in similar mice. Because the animals were obese and a maximal effect was desired, a large amount of hormone (50 milliunits per mouse) were used.
# [3] = test system: adipose tissue from hypophysectomized rats; assay: Stimulation of glucose oxidation in adipose tissue from hypophysectomized rats; assay type: cell-based; settings: for ability to stimulate glucose oxidation in adipose tissue: native peptides at concentrations up to 50 μg per ml
# Text: Biochem., 11, 559-570. The detailed extraction procedure actually employed is set forth in "Human Growth Hormone Peptide 1-43: Isolation from Pituitary Glands", Singh et al., J. Protein Chem., (in press) (1983).
# [4] = test system: VY-F-1 hybrid yellow mice; assay: (U-14C)-D-glucose incorporation in tissues of mice after a glucose load; assay type: in vivo
# Procedure: containing an appropriate amount of (U-^14 C)-D-glucose (Amersham Radiochemicals, Arlington Heights, IN) so that about 8×10^5 dpm of radiolabeled glucose was given per mouse. Sixty minutes after administration of the mixture, the mice were sacrificed and fragments of liver, diaphragm, and adipose tissue were quickly excised and weighed in a torsion balance. The pieces were placed in vials and digested for 2 hr at 55° C. in 1 molar KOH. After cooling to room temperature, the scintillation liquid was added to the vials. Radioactivity was measured the next day, and an average efficiency of 60% was measured using the internal standard method. Samples of blood were collected at the desired time by intraorbital puncture. Glucose content in the chilled plasma was determined in triplicates by the glucose oxidase method. Blood concentration of radioactive glucose was determined using 20 μl of plasma. Glucose incorporation (GI), expressed in arbitrary units, was calculated by the following equation for the various tissues: [formula] The specific activity of plasma glucose is defined as disintegrations per minute of radioactivity×1000 per 100 μl plasma, divided by milligrams of glucose per 100 ml. of plasma. Statistical significance was determined by 1-way analysis of variance and Duncan's multiple range t-test. Yellow (A^vy /A) and agouti (A/a) virgin (BALB/c×VY)F-1 hybrid female mice were produced by mating BALB/[…] females by […] males. The mice were housed 3 per 7"×5"×11" polypropylene cage with pine shavings as bedding and fed Wayne Lab Blox (Allied Mills, Inc.) 10% fat diet and tap water ad libitum. Ambient temperature was about 22±1° C., and a 12 hr light cycle was maintained. […] Whereas the effect upon the incorporation of glucose in the diaphragm was of lesser magnitude, it is possible that the values represent the maximal rate of glucose utilization by this muscle. […] Further testing was carried out on other mice to show the effect of insulin on the utilization of glucose in similar mice. Because the animals were obese and a maximal effect was desired, a large amount of hormone (50 milliunits per mouse) were used.
# [5] = mice; Frigeri et al., Endocrine Society Abstract #88; cited from earlier work
# [6] = Table I, increase versus saline, 50 μg, 30 min before glucose
# [7] = Table IA, increase versus saline, 50 μg, 30 min before glucose
# [8] = Group B: insulin 50 mU per mouse 30 min before glucose
# [9] = Group B: insulin 50 mU per mouse 30 min before glucose, listed as insulin
# [10] = Group C: insulin 50 mU per mouse 5 min before glucose load
# [11] = Group C: insulin 50 mU per mouse 5 min before glucose load, listed as insulin
molecule,measurement,setting,value
"CC[C@H](C)[C@H](NC(=O)[C@H](Cc1ccc(O)cc1)NC(=O)[C@H](C)NC(=O)[C@H](CCC(=O)O)NC(=O)[C@H](CCC(=O)O)NC(=O)[C@H](Cc1ccccc1)NC(=O)[C@H](CCC(=O)O)NC(=O)[C@H](CCC(N)=O)NC(=O)[C@H](Cc1ccc(O)cc1)NC(=O)[C@@H](NC(=O)[C@H](CC(=O)O)NC(=O)[C@H](Cc1ccccc1)NC(=O)[C@H](C)NC(=O)[C@H](CC(C)C)NC(=O)[C@H](CCC(N)=O)NC(=O)[C@H](Cc1c[nH]cn1)NC(=O)[C@H](CC(C)C)NC(=O)[C@H](CCCNC(=N)N)NC(=O)[C@H](Cc1c[nH]cn1)NC(=O)[C@H](C)NC(=O)[C@H](CCCNC(=N)N)NC(=O)[C@H](CC(C)C)NC(=O)[C@H](CCSC)NC(=O)[C@H](C)NC(=O)[C@H](CC(N)=O)NC(=O)[C@H](CC(=O)O)NC(=O)[C@H](Cc1ccccc1)NC(=O)[C@H](CC(C)C)NC(=O)[C@H](CCCNC(=N)N)NC(=O)[C@H](CO)NC(=O)[C@H](CC(C)C)NC(=O)[C@@H]1CCCN1C(=O)[C@@H](NC(=O)[C@@H](NC(=O)[C@@H]1CCCN1C(=O)[C@@H](N)Cc1ccccc1)[C@@H](C)O)[C@@H](C)CC)[C@@H](C)O)C(=O)N1CCC[C@H]1C(=O)N[C@@H](CCCCN)C(=O)N[C@@H](CCC(=O)O)C(=O)N[C@@H](CCC(N)=O)C(=O)N[C@@H](CCCCN)C(=O)N[C@@H](Cc1ccc(O)cc1)C(=O)N[C@@H](CO)C(=O)O [hGH(1-43), H--Phe--Pro--Thr--Ile--Pro--Leu--Ser--Arg--Leu--Phe--Asp--Asn--Ala--Met--Leu--Arg--Ala--His--Arg--Leu--His--Gln--Leu--Ala--Phe--Asp--Thr--Tyr--Gln--Glu--Phe--Glu--Glu--Ala--Tyr--Ile--Pro--Lys--Glu--Gln--Lys--Tyr--Ser--OH]",hypoglycemic activity of insulin,[1],an increase of its hypoglycemic activity is observed
same,change of plasma glucose after administration of the peptide,[2]; after administration of hGH(1-43),no significant decrease
same,stimulation of in vitro glucose oxidation in adipose tissue,[3]; in vitro,does not stimulate
same,ability to stimulate glucose oxidation in adipose tissue,[3],inactive
same,Glucose Incorporation Diaphragm,"[4]; Table I, 50 μg intraperitoneally 30 min before glucose load, Mean ± SEM",52.0 arbitrary units/g of tissue
same,Glucose Incorporation Liver,"[4]; Table I, 50 μg intraperitoneally 30 min before glucose load, tissue 60 min after glucose, Mean ± SEM",135.9 arbitrary units/g of tissue
same,Glucose Incorporation Adipose Tissue (%),[4]; [6],63%
same,Glucose Incorporation Diaphragm (%),[4]; [6],17%
same,Glucose Incorporation Liver,"[4]; Table IA, 50 μg 30 min before glucose load, Mean ± SEM",115.2 ± 16 arbitrary units/g of tissue
same,Glucose Incorporation Liver (%),[4]; [7],35%
"GH: purified growth hormone, used as active comparator in the glucose oxidation assay",level at which glucose oxidation stimulating activity is shown,[3]; purified GH,0.2 ng per ml
"H-AHRLHQLAFDTYQEFEEAYIPKEQKYS-OH [hGH(17-43), H--Ala--His--Arg--Leu--His--Gln--Leu--Ala--Phe--Asp--Thr--Tyr--Gln--Glu--Phe--Glu--Glu--Ala--Tyr--Ile--Pro--Lys--Glu--Gln--Lys--Tyr--Ser--OH]",ability to stimulate glucose oxidation in adipose tissue,[3],inactive
same,Glucose Incorporation Liver (%),[4]; [7],~35%
Insulin: hormone which controls storage and oxidation of sugar; given at 50 mU per mouse,Plasma Glucose 0 min,[2]; [8],70 ± 8.3 mg/dL
same,Plasma Glucose 0 min,[2]; [9],dropped sharply
same,Plasma Glucose 60 min,[2]; [8],182 ± 11.8 mg/dL
same,Plasma Glucose -30 min,"[2]; Group B: insulin 50 mU per mouse 30 min before glucose, sample at -30 min",122 ± 2.8 mg/dL
same,Plasma Glucose 0 min,[2]; [10],151. ± 9.5 mg/dl
same,Plasma Glucose 60 min,[2]; [10],270 ± 31 mg/dL
same,Plasma Glucose -5 min,"[2]; Group C: insulin 50 mU per mouse 5 min before glucose load, sample at -5 min",129 ± 6.5 mg/dL
same,Glucose Incorporation Adipose Tissue,[4]; [8],9.1 ± 0.82 arbitrary units/g of tissue
same,Glucose Incorporation Diaphragm,[4]; [8],54.4 ± 2.8 arbitrary units/g of tissue
same,Glucose Incorporation Liver,[4]; [8],36.6 ± 2.6 arbitrary units/g of tissue
same,Glucose Incorporation Adipose Tissue,[4]; [9],rose
same,Glucose Incorporation Diaphragm,[4]; [9],rose
same,Glucose Incorporation Liver,[4]; [9],fell sharply below control levels
same,Glucose Incorporation Adipose Tissue,[4]; [10],9.0 ± 1.05 arbitrary units/g of tissue
same,Glucose Incorporation Diaphragm,[4]; [10],52.2 ± 2.4 arbitrary units/g of tissue
same,Glucose Incorporation Liver,[4]; [10],64.4 ± 9.5 arbitrary units/g of tissue
same,Glucose Incorporation Adipose Tissue,[4]; [11],rose to values similar to those observed in the -30 minute treated group
same,Glucose Incorporation Diaphragm,[4]; [11],rose to values similar to those observed in the -30 minute treated group
same,Glucose Incorporation Liver,[4]; [11],remained unchanged
"fragment corresponding to amino acid residues 32-46: fragment corresponding to amino acid residues 32-46 of human GH (literature) (EEAYIPKEQKYSFLQ; UniProt P01241 58-72, looked up, fragment)",glucose tolerance,[5],could improve the glucose tolerance
